For the data set the following is noted: a range is the spread between reports.
Broadly, the melting point is the temperature of the solid-liquid transition. In turn, `CNC(=O)Oc1cccc2c1OC(C)(C)C2` had a melting point of 151 to 152 °C.
`CCC(=O)c1ccc(Br)cc1`: the melting point lay in the range of 46 to 48 °C.
In turn, `c1ccc2c(c1)CCCC2` showed a melting point of -36 to -31 °C.
With `Sc1nc2ccccc2s1`, the melting point lay in the range of 179 to 181 °C.
Turning to `CCCCCCN`, the melting point was -23 to -19 °C.
As to `CCOc1ccc(N)cc1`, the melting point lay in the range of 2.4 to 4 °C.
`Cc1ccc(C(N)=O)cc1` yielded a melting point of 159 to 163 °C.
With `C=CC(N)=O`, the melting point lay within 84 to 84.5 °C.
The result for `Cc1c[nH]cn1` reads 51 to 56 °C; that for `CC(=O)Nc1cccc(Cl)c1`, 77 to 80 °C; that for `NCCO`, 10 to 11 °C.
The compound `O=[N+]([O-])c1ccc(F)cc1` displayed a melting point of 21 to 23 °C.
The result for `CCBr` reads -119 °C; that for `CS(=O)c1ccccc1` (stereo not given), 29 to 32 °C.
`OCCOCCOCCO` showed a melting point of -7 to -4 °C.
In turn, `CC(C)(C)N=C=S` yielded a melting point of 10 to 10.5 °C.
For the compound `Clc1ccc(Cl)s1`, the melting point is -41 to -40.5 °C.
Consider `c1csc(-c2cccs2)c1`, for which the melting point fell in the range of 32 to 33 °C.
The result for `N#CC(C#N)=C(C#N)C#N` reads 198 to 199 °C; that for `Clc1cccc(Br)c1`, -22 to -21.5 °C; that for `CCC(C)=C(C)C`, -118 °C.
`CCCCS(=O)(=O)CCCC` yielded a melting point of 44 to 45 °C.
As for `COC(=O)c1cc(Cl)ccc1N`, the melting point is 67 to 69 °C.
Compound `CCCCCCCCCCCC[N+](C)(C)[O-]` came in with a melting point of 130 to 132 °C.
The result for `Cc1c(Br)cc(Br)cc1Br` reads 69 to 70 °C; that for `O=Cc1cc(Cl)ccc1O`, 100 to 101 °C; that for `CCO[Si](OCC)(OCC)OCC`, -86 to -82.5 °C.
For the compound `CC(Oc1ccccc1Cl)C(=O)O` (stereo not given), the melting point lay in the range of 113 to 114 °C.
Turning to `Cc1ccc(N)c(N)c1`, the melting point lay within 88 to 89.5 °C.
The result for `Clc1ccc(Cl)c(I)c1` reads 21 to 22 °C; that for `O=[N+]([O-])c1ccc2c3c(cccc13)CC2`, 103 to 104 °C.
For `Nc1ccc2ncsc2c1`, the melting point fell in the range of 87 to 88 °C.
The compound `CCOC(=O)c1ccc([N+](=O)[O-])o1` showed a melting point of 100 to 101 °C.
The result for `Cc1ccc2ccccc2c1` reads 33 to 34.4 °C; that for `Cc1ccccc1-c1ccccc1C`, 18 to 19.5 °C; that for `N#Cc1ccc(Cl)c([N+](=O)[O-])c1`, 99 to 100 °C.
Regarding `N#Cc1ccccc1O`, the melting point fell in the range of 93.5 to 98 °C.
The result for `O=C1CC[C@@H](C(=O)O)N1` reads 160 to 162 °C.
Turning to `N#Cc1ccncc1`, the melting point was in the range of 76 to 79 °C.
Consider `BrCCCCCCCCCCCCBr`, for which the melting point was in the range of 40 to 41 °C.
`COc1ccc(OC)cc1` came in with a melting point of 56 to 60 °C.
Take `O=C(O)CC(S)C(=O)O` (stereo not given): the melting point was 149 to 152 °C.
Regarding `Nc1ccc([N+](=O)[O-])cc1[N+](=O)[O-]`, the melting point is 176 to 180 °C.
For the compound `Nc1ccc([N+](=O)[O-])cc1C(=O)c1ccccc1`, the melting point was 163 to 167 °C.
The compound `ClC=C(Cl)Cl` showed a melting point of -85 to -84.7 °C.
The result for `CCCCOC` reads -116 to -115 °C.
With `C1OCOCO1`, the melting point lay in the range of 60.2 to 61 °C.
Regarding `CC(C)C1(C)N=C(c2ncccc2C(=O)O)NC1=O` (stereo not given), the melting point is 171 to 172 °C.
On to `CCC#CCCC`, for which the melting point was -131 to -130 °C.
As to `Cc1cc(C)c(C)c(C)c1`, the melting point was -24 to -23.7 °C.
The result for `Clc1ccc(Cl)nn1` reads 67.5 to 68 °C.
In turn, `COc1ccccc1[N+](=O)[O-]` came in with a melting point of 9.4 to 10.5 °C.
In turn, `C=C(C#N)C(=O)OCC` came in with a melting point of -22.5 to -22 °C.
As to `COc1cc(NS(=O)(=O)c2ccc(N)cc2)nc(OC)n1`, the melting point worked out at 204 °C.
The result for `Oc1ccc(-c2ccccc2)cc1` reads 165 to 167 °C; that for `N#Cc1ccc(F)cc1`, 34.8 to 36 °C; that for `OCc1cccnc1`, -7 to -6.5 °C.
Compound `Brc1ccc(I)cc1` showed a melting point of 91 to 92 °C.
As for `CCC(C)(C)C(=O)OC1CC(C)C=C2C=CC(C)C(CCC3CC(O)CC(=O)O3)C21` (stereo not given), the melting point came to 136 °C.
Turning to `O=S(c1ccccc1)c1ccccc1`, the melting point lay within 70 to 71.2 °C.
Compound `CCCC(C)(C)CC` showed a melting point of -126 °C.
As to `Cc1c(C2(c3cc(C(C)C)c(O)c(Br)c3C)OS(=O)(=O)c3ccccc32)cc(C(C)C)c(O)c1Br`, the melting point is 200 to 201 °C.
The result for `Clc1cccnc1Cl` reads 66 to 67 °C; that for `Cc1cc(Cl)nc2ccccc12`, 55 to 59 °C.
In turn, `Fc1ccc(-c2ccccc2)cc1` had a melting point of 74 to 74.2 °C.
The compound `C=C(C)C(C)C` registered a melting point of -157 °C.
The result for `C=CCC1(C(C)CCC)C(=O)NC(=O)NC1=O` (stereo not given) reads 95 to 100 °C.
`OC1CCCCCCCCC1` gave a melting point of 39.9 to 40.5 °C.
`Cc1cccc2c1ccc1cc(C(C)C)ccc12` returned a melting point of 99 to 101 °C.
`O=[N+]([O-])c1c(F)cc(F)cc1F` registered a melting point of 3.5 to 4 °C.
In the case of `CC(=O)Nc1ccc(C=O)cc1`, the melting point is 156 to 160 °C.
As for `COC(F)(F)C(Cl)Cl`, the melting point was -36 to -35 °C.
For `NC(=O)OCc1ccccc1`, the melting point lay within 87 to 88 °C.
For the compound `O=C1c2ccccc2C(=O)C1c1ccccc1`, the melting point is 150 °C.
For `CCCCCCCCCCCCCC=O`, the melting point is 20.5 to 24 °C.
`COc1ccc(C(=O)c2ccc(OC)cc2O)c(O)c1` had a melting point of 135 to 140 °C.
On to `CC(=O)c1ccccc1C(=O)O`, for which the melting point lay in the range of 114 to 117 °C.
The compound `O=Cc1ccc(O)c(O)c1` gave a melting point of 153 to 155 °C.
`CS(=O)(=O)c1ccccc1` showed a melting point of 86 to 87 °C.
`OC/C=C\CO` returned a melting point of 4 to 7 °C.
`NC(=O)c1ccccc1N` had a melting point of 108 to 113 °C.
Regarding `CN(C)c1ccncc1`, the melting point lay within 111 to 112 °C.
For `O=C(O)C=Cc1ccccc1C(F)(F)F`, the melting point is 202 to 206 °C.
Consider `CCCCCCCCCCCCCCCCCCCC(=O)O`, for which the melting point was 75 to 75.4 °C.
Turning to `C=CCCC`, the melting point was -165 to -162 °C.
`CCCOc1ccccc1` returned a melting point of -28 to -27 °C.
Regarding `OCC(O)CO`, the melting point is 17.8 to 18.2 °C.
Regarding `CCCCC(=O)O`, the melting point is -34 to -33.7 °C.
With `O=C(O)CCCCc1ccccc1`, the melting point lay in the range of 57.5 to 59 °C.
Turning to `Oc1cc(Cl)cc(Cl)c1`, the melting point was in the range of 66 to 68 °C.
The result for `CCN(CC)c1ccc(C=O)cc1` reads 40 to 41 °C.
In turn, `c1ccc2c(c1)Nc1ccccc1S2` came in with a melting point of 184 to 188 °C.
`c1ccc(-c2ncc[nH]2)cc1` registered a melting point of 148 to 149 °C.
The result for `COc1ccc(CC#N)cc1OC` reads 62.8 to 64 °C; that for `COc1cc(C=O)cc(OC)c1`, 46 to 47 °C; that for `CC(C)CC(=O)CC(C)C`, -42 to -41.5 °C.
Compound `CCC1(c2ccccc2)CCC(=O)NC1=O` (stereo not given) showed a melting point of 84 to 87.5 °C.
Compound `Brc1cccc2ccccc12` had a melting point of -1.8 to -1 °C.
For the compound `O=C(O)c1ccc([N+](=O)[O-])c([N+](=O)[O-])c1`, the melting point was in the range of 165 to 166 °C.
As for `CCC(C)C(C)(C)CC` (stereo not given), the melting point is -101 °C.
The compound `CCCl` returned a melting point of -139 °C.
The compound `C#CCCC(C)C` registered a melting point of -125 to -124 °C.
For `C#CC(C)(C)O`, the melting point was in the range of 2.6 to 3 °C.
On to `IC(I)I`, for which the melting point lay within 119 to 122 °C.
The result for `OCc1c[nH]c2ccccc12` reads 97.5 to 98 °C; that for `COc1cc(Cl)ccc1O`, 16.5 to 17 °C.
With `COc1cc([N+](=O)[O-])ccc1N`, the melting point is 140 to 141 °C.
Compound `Cc1ccc(N=C=O)cc1N=C=O` gave a melting point of 20 to 21 °C.
In the case of `OCc1ccc(Cl)cc1`, the melting point was 70 to 75 °C.
Compound `C#C` came in with a melting point of -80.8 to -80.7 °C.
As to `CCOC(=O)c1ccc(C(=O)OCC)cc1`, the melting point is 44 to 45 °C.
In turn, `O=C(O)CCCCBr` showed a melting point of 39 to 40 °C.
`O=C(O)c1cc(Cl)c(O)c(Cl)c1` gave a melting point of 265 to 268 °C.
Compound `O=[N+]([O-])c1cc(Cl)ccc1O` yielded a melting point of 87 to 89 °C.
For the compound `CC(=O)NO`, the melting point fell in the range of 88 to 90.5 °C.
The result for `CC1CC=CCC1` (stereo not given) reads -116 to -115 °C.
The compound `C=C[Si]1(C)O[Si](C)(C=C)O[Si](C)(C=C)O[Si](C)(C=C)O1` (stereo not given) registered a melting point of -43.5 to -43 °C.
On to `CCCC1CCCCC1`, for which the melting point was -95 to -94.9 °C.
In turn, `Nc1ccc(C2CCCCC2)cc1` returned a melting point of 53 to 54.5 °C.
On to `CCOC(=O)C(NC(C)=O)C(=O)OCC`, for which the melting point fell in the range of 96.3 to 98 °C.
In turn, `COC(=O)C(=O)OC` displayed a melting point of 52 to 54.3 °C.
`N#CC(c1ccccc1)c1ccccc1` returned a melting point of 74 to 74.3 °C.
The result for `c1ccc2c3c([nH]c2c1)CCCC3` reads 118 to 120 °C; that for `N#C/C=C/c1ccccc1`, 19 to 22 °C; that for `O=C(O)c1cc2ccccc2cc1O`, 220 to 222 °C.
On to `CCOC(=O)c1ccc(OC)c(OC)c1`, for which the melting point lay in the range of 43.5 to 44 °C.
`CCOC(=O)c1ccccn1` returned a melting point of 1 to 2 °C.
`Brc1ccccc1Br` registered a melting point of 5 to 7.1 °C.
The result for `Cc1cnccn1` reads -30 to -29 °C; that for `Cc1cccc(C(=O)O)c1O`, 165 to 166 °C.
Compound `OCC(F)F` came in with a melting point of -28.2 to -28 °C.
In turn, `COc1cccc(C(N)=O)c1` showed a melting point of 133 to 134 °C.
The result for `Cc1ccnc(C)c1` reads -64 to -60 °C; that for `O=S(=O)(Cl)c1cccs1`, 28 to 30 °C; that for `ClCCCBr`, -59 to -58.9 °C.

Source of the values: a melting point compilation (Tetko et al.).
